ChEMBL document CHEMBL1135352, “8-Anilinoimidazo[4,5-g]quinoline-7-carbonitriles as Src kinase inhibitors” (Bioorg Med Chem Lett, 2002)

Legend:
[1] = biological target: Receptor tyrosine-protein kinase erbB-2 (Homo sapiens, UniProt P04626); assay: Inhibition of ERBB2 receptor kinase
[2] = biological target: Epidermal growth factor receptor (Homo sapiens, UniProt P00533); assay: Inhibition of Epidermal growth factor receptor kinase
[3] = biological target: Proto-oncogene tyrosine-protein kinase Src (Rattus norvegicus, UniProt Q9WUD9); assay: Inhibition of src kinase activity in Src transformed rat fibroblasts; type: functional
Proto-oncogene tyrosine-protein kinase Src (Rattus norvegicus, UniProt Q9WUD9), sequence (Q9WUD9 2-536 limits assumed): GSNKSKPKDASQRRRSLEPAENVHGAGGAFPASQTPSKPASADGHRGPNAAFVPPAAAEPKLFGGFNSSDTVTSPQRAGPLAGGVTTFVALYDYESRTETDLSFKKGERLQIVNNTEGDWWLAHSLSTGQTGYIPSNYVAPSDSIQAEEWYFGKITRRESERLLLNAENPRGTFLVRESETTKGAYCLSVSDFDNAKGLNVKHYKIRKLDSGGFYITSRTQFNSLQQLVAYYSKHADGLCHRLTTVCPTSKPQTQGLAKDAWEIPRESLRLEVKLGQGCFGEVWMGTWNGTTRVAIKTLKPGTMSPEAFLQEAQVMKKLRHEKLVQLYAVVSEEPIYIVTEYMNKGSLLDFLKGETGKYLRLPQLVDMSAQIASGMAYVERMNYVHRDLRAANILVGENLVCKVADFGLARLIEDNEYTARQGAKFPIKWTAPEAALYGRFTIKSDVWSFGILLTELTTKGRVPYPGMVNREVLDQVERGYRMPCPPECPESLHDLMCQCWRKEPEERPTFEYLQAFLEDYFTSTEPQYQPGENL

[4] = Inhibition of Dual specificity mitogen-activated protein kinase kinase MEK
[5] = biological target: Proto-oncogene tyrosine-protein kinase Src (Homo sapiens, UniProt P12931); assay: Inhibition of Src protein tyrosine kinase activity
Proto-oncogene tyrosine-protein kinase Src (Homo sapiens, UniProt P12931), sequence (P12931 2-536 limits assumed): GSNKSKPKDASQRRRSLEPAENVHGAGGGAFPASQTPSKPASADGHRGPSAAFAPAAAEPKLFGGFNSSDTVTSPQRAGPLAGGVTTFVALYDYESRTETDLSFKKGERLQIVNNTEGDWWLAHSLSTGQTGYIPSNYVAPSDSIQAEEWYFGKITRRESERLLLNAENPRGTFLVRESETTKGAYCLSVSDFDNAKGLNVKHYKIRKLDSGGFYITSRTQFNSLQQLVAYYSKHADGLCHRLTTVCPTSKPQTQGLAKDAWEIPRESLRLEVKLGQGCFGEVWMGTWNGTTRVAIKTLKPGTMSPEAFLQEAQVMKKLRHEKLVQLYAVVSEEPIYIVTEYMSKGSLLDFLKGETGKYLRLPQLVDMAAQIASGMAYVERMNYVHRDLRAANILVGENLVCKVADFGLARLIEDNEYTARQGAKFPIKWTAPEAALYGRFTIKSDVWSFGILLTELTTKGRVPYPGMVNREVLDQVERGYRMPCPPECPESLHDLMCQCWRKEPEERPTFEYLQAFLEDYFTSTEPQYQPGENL

Epidermal growth factor receptor, sequence (P00533 whole entry): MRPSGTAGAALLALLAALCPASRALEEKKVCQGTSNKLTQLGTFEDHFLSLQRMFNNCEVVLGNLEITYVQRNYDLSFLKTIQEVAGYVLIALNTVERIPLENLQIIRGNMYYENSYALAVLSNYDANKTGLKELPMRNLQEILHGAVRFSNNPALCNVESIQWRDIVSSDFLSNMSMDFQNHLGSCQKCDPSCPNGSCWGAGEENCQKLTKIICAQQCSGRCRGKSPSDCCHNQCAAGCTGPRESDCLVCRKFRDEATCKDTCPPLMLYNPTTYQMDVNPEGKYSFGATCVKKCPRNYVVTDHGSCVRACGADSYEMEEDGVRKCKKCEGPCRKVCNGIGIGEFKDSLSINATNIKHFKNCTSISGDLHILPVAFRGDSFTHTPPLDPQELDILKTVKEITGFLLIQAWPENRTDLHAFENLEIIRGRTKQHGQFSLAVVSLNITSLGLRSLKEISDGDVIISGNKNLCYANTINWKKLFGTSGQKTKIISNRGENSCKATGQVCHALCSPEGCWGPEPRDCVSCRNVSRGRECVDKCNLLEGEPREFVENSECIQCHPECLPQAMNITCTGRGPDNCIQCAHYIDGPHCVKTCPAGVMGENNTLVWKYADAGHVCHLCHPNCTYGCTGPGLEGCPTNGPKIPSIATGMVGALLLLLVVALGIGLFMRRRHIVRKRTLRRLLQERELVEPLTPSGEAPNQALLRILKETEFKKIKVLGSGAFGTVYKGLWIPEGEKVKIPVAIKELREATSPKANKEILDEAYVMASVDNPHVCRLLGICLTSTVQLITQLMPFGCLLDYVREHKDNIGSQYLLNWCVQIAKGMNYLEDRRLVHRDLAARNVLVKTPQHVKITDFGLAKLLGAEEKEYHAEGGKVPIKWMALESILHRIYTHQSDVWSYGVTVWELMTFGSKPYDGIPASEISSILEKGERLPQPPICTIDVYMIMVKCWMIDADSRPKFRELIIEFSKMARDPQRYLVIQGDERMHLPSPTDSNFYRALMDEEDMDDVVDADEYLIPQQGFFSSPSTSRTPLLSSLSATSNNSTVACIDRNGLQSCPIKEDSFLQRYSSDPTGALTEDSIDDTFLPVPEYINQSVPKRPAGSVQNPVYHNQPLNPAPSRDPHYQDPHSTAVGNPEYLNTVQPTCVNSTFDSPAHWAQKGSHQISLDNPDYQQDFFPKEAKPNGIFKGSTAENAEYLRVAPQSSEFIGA
Receptor tyrosine-protein kinase erbB-2, sequence (P04626 whole entry): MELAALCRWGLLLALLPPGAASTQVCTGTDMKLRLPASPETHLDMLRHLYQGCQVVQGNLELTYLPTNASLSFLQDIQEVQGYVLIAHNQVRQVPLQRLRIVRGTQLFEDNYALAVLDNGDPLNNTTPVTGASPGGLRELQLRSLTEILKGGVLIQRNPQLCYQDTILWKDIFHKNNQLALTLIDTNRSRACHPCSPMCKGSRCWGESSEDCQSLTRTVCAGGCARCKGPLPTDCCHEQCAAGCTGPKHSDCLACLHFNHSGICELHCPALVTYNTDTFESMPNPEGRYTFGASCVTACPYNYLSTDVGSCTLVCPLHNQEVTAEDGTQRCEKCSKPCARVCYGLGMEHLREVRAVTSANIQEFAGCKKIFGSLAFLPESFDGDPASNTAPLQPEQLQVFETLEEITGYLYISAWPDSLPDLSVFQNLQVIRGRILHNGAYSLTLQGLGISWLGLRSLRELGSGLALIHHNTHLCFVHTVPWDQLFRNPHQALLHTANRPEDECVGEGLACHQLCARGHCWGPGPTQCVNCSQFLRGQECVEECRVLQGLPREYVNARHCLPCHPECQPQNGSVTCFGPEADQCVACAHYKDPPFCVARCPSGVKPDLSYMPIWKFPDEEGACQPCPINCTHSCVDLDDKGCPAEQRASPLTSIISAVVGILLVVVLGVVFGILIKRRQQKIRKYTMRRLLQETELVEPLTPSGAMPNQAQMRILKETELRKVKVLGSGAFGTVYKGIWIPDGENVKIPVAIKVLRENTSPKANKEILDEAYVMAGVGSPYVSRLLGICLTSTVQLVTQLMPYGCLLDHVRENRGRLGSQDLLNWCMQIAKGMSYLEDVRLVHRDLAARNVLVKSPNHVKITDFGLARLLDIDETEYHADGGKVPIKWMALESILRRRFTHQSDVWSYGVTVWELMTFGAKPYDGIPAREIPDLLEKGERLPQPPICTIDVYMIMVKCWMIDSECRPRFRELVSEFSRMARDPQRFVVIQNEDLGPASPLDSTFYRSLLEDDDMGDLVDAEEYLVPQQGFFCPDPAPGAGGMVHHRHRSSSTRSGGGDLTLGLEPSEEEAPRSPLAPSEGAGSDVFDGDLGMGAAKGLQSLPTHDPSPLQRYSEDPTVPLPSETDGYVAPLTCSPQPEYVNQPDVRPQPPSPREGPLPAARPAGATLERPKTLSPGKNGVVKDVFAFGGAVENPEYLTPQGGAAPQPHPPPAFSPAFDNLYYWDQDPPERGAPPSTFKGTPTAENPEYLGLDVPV

| IC50 [1] | IC50 [2] | IC50 [3] | IC50 [4] | IC50 [5] | Compound |
| --- | --- | --- | --- | --- | --- |
| > 1000 nM | > 1000 nM | 670 nM | > 1000 nM | 9 nM | COc1cc(Nc2c(C#N)cnc3cc4c(cc23)ncn4CCN2CCOCC2)c(Br)cc1Cl |
| > 1000 nM | > 1000 nM | > 10000 nM | > 1000 nM | 67 nM | COc1ccc(C)c(Nc2c(C#N)cnc3cc4[nH]c(NCCN5CCOCC5)nc4cc23)c1 |
| > 1000 nM | > 1000 nM | 3900 nM | > 1000 nM | 29 nM | COc1cc(Nc2c(C#N)cnc3cc4c(cc23)ncn4CCN2CCOCC2)c(C)cc1Cl |
| > 1000 nM | > 1000 nM | > 10000 nM | > 1000 nM | 620 nM | COc1cc(Nc2c(C#N)cnc3cc4[nH]c(CN5CCOCC5)nc4cc23)cc(OC)c1OC |
| > 1000 nM | > 1000 nM | 1200 nM | > 1000 nM | 43 nM | COc1ccc(Cl)c(Nc2c(C#N)cnc3cc4c(cc23)ncn4CCN2CCOCC2)c1 |
| > 1000 nM | > 1000 nM | 10500 nM | > 1000 nM | 30 nM | COc1ccc(Cl)c(Nc2c(C#N)cnc3cc4[nH]cnc4cc23)c1 |
| > 1000 nM | > 1000 nM | 3300 nM | > 1000 nM | 120 nM | COc1ccc(C)c(Nc2c(C#N)cnc3cc4c(cc23)ncn4CCN2CCOCC2)c1 |
| > 1000 nM | – | > 10000 nM | – | 180 nM | COc1cc(Nc2c(C#N)cnc3cc4nc(NCCN5CCOCC5)[nH]c4cc23)cc(OC)c1OC |
| > 1000 nM | > 1000 nM | > 10000 nM | > 1000 nM | 330 nM | COc1cc(Nc2c(C#N)cnc3cc4[nH]cnc4cc23)cc(OC)c1OC |
| > 1000 nM | > 1000 nM | 2800 nM | > 1000 nM | 16 nM | COc1cc(Nc2c(C#N)cnc3cc4[nH]cnc4cc23)c(Br)cc1Cl |
| > 1000 nM | > 1000 nM | 10100 nM | > 1000 nM | 75 nM | N#Cc1cnc2cc3[nH]cnc3cc2c1Nc1ccc(Cl)cc1Br |
| > 1000 nM | > 1000 nM | > 10000 nM | > 1000 nM | 200 nM | COc1cc(Nc2c(C#N)cnc3cc4c(cc23)ncn4CCN2CCOCC2)cc(OC)c1OC |
